Measurements published in publication PMC8716824, “Design, Synthesis and Anti-Lung Cancer Evaluation of 1, 2, 3-Triazole Tethered Dihydroartemisinin-Isatin Hybrids” (Frontiers in Pharmacology, 2021).
Like-named read-outs stand apart in the source and are kept apart here.

Experiments:
A549 lung cancer cells = test: MTT antiproliferative assay, A549; assay type: cell-based; conditions: Homo sapiens
Description: (§1) The antiproliferative activity of 1,2,3-triazole tethered dihydroartemisinin-isatin hybrids 8a-c and 9a-k against A549, multidrug-resistant A549/DOX and A549/DDP lung cancer cell lines as well as cytotoxicity towards mouse embryonic fibroblast cells NIH/3T3 were assessed by 3-(4,5-dimethylthiazol-2-yl)-2,5-diphenyltetrazolium bromide (MTT) assay, and half maximal inhibitory concentration (IC50) values were listed in Table 2. A549, A549/DOX, and A549/DDP lung cancer cells (2 × 10^3) were plated in each well of a 96-well plate and were allowed to adhere and spread for 24 h. The 1,2,3-triazole tethered dihydroartemisinin-isatin hybrids 8a-c and 9a-k were added to a final concentration of 100 μM, and the cells were cultured for 24 h at 37°C. 3-(4,5-dimethyl-2-thiazolyl)-2,5-diphenyltetrazolium bromide (MTT) solution (10 µL) was added to each well, and the cultures were incubated for an additional 4 h. A further 100 µL of […] was added and incubation continued overnight. The absorbance at 540 nm was determined in each well with a 96-well plate reader. The growth of the treated cells was compared with that of untreated cells.

[1] = test system: doxorubicin-resistant A549 (A549/DOX) lung cancer cells; test: MTT antiproliferative assay, A549/DOX; assay type: cell-based; conditions: Homo sapiens
Description: as §1

[2] = test system: cisplatin-resistant A549 (A549/DDP) lung cancer cells; test: MTT antiproliferative assay, A549/DDP; assay type: cell-based; conditions: A549/DDP
Description: as §1

[3] = test system: mouse embryonic fibroblast cells NIH/3T3; test: MTT cytotoxicity assay, NIH/3T3; assay type: cell-based; conditions: for SI (selectivity index): IC50(NIH/3T3)/IC50(A549); for IC50: Mus musculus, NIH3T3, cytotoxicity, NIH/3T3 cells, MTT (called CC50 in method)
Description: The antiproliferative activity of 1,2,3-triazole tethered dihydroartemisinin-isatin hybrids 8a-c and 9a-k against A549, multidrug-resistant A549/DOX and A549/DDP lung cancer cell lines as well as cytotoxicity towards mouse embryonic fibroblast cells NIH/3T3 were assessed by 3-(4,5-dimethylthiazol-2-yl)-2,5-diphenyltetrazolium bromide (MTT) assay, and half maximal inhibitory concentration (IC50) values were listed in Table 2.
The cytotoxicity (CC50) of the synthesized 1,2,3-triazole tethered dihydroartemisinin-isatin hybrids 8a-c and 9a-k were examined by the MTT assay in mouse embryonic fibroblast cells NIH/3T3. The compounds were dissolved in DMSO with concentrations from 1,024 to 1 μg/ml. The NIH/3T3 cells were maintained in culture medium at 37°C under 5% CO2 atmosphere. Cells were seeded in 96-well plates (1 × 10^4 cell per well) and allowed to recover for 24 h. After 72 h of exposure, cells were harvested and cell viability was assessed by MTT assay. The CC50 values were calculated by Bliss analy.

[4] = Stability in mouse liver microsomes; assay type: in vitro ADME
Description: (§2) The metabolic stability of selected hybrids 8a,c and 9i was assessed in mouse and human microsomes, and the results were listed in Table 3.

[5] = Stability in human liver microsomes; assay type: in vitro ADME
Description: as §2

[6] = Pharmacokinetics in CD-1 mice; assay type: in vivo; conditions: mouse, plasma, 30 mg/kg, single intravenous administration; for clearance: read-out: Cl (clearance rate) (converted); for bioavailability: read-out: F (bioavailability); for Tmax: read-out: tmax (peak time) (converted)
Description: The pharmacokinetic behavior of hybrids 8a,c was determined in CD-1 mice model by single intravenous administration with dose of 30 mg/kg.
CD-1 mice (20–25 g) were used in the pharmacokinetic study, and each treatment group had 3 mice which were dosed with hybrids 8a,c suspension at 30 mg/kg by single intravenous administration. Compounds were suspended in 0.5% CMC for iv, and blood was collected from the jugular vein of each mouse at the following time points: 0.25, 0.5, 1, 2, 4, 6, 8 and 24 h after intravenous administration. Total area under the concentration time curve (AUC), the elimination half-time (t1/2), the peak concentration (Cmax) and the time to reach peak concentration (Tmax) of samples were determined directly from the experimental data using WinNonlin V6.2.1.

[7] = test system: A549, A549/DOX and A549/DDP lung cancer cell lines; test: MTT antiproliferative assay, ranges pooled over lung cancer cell lines; assay type: cell-based
Description: as §1

[8] = Stability in mouse/human microsomes, pooled range; assay type: in vitro ADME
Description: as §2

[9] = Homo sapiens, range over A549 and A549/DOX, read-out: IC50, range over A549 and A549/DOX
[10] = range over the three lung cancer cell lines, read-out: IC50, range over A549, A549/DOX and A549/DDP

IC50 (A549 lung cancer cells)	IC50 [1]	IC50 [2]	Liver microsomes, Mouse [4]	Liver microsomes, Human [5]	AUC [6]	Cmax [6]	half-life [6]	clearance [6]	bioavailability [6]	Tmax [6]	IC50 [7, 9]	IC50 [7, 10]	Liver microsomes, range over mouse and human [8]	Structure (SMILES)	SI (selectivity index) [3]	IC50 [3]
8.32 µM	12.1 µM	10.7 µM	77%	68%	883 ng·h/mL	6.4 µM	3.7 h	38.5 mL/min/kg	35.6%	0.2 h	7.54 to 15.9 µM	7.54 to 12.1 µM	68–83%	C[C@@H]1CC[C@H]2[C@@H](C)C(OCc3cn(CCN4C(=O)C(=O)c5ccccc54)nn3)O[C@@H]3O[C@@]4(C)CC[C@@H]1[C@]32OO4 (stereo partly drawn) [8a, 1-(2-(4-((((3R,5aS,6R,8aS,9R,12R,12aR)-3,6,9-trimethyldecahydro-12H-3,12-epoxy[1,2]dioxepino[4,3-i]isochromen-10-yl)oxy)methyl)-1H-1,2,3-triazol-1-yl)ethyl)indoline-2,3-dione]	>12.0	> 100 µM
7.54 µM	9.89 µM	8.77 µM	71%	83%	654 ng·h/mL	12.5 µM	4.2 h	52.7 mL/min/kg	27.5%	0.2 h	7.54 to 15.9 µM	7.54 to 12.1 µM	68–83%	C[C@@H]1CC[C@H]2[C@@H](C)C(OCc3cn(CCN4C(=O)C(=O)c5cc(F)ccc54)nn3)O[C@@H]3O[C@@]4(C)CC[C@@H]1[C@]32OO4 (stereo partly drawn) [8c, 5-fluoro-1-(2-(4-((((3R,5aS,6R,8aS,9R,12R,12aR)-3,6,9-trimethyldecahydro-12H-3,12-epoxy[1,2]dioxepino[4,3-i]isochromen-10-yl)oxy)methyl)-1H-1,2,3-triazol-1-yl)ethyl)indoline-2,3-dione]	>13.2	> 100 µM
